Source: patent publication US12084472B2 (Ardelyx, Inc., priority 2015, dated 2024)

Target: T1, human TGR5 (Homo sapiens, UniProt Q8TDU6)
T1 construct: expressed in transfected cells; host or cells: HEK293
T1 sequence (Q8TDU6 1-330): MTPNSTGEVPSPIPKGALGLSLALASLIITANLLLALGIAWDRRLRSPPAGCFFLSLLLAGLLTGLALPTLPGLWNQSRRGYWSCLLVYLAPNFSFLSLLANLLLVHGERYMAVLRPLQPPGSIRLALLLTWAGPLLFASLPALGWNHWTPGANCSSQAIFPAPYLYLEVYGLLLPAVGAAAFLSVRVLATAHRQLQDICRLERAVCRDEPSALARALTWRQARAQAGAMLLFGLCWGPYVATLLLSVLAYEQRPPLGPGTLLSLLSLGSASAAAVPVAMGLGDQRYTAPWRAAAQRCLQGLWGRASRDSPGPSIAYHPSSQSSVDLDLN
Test: Cell-based TGR5 assay (cAMP generation, HTRF)
Conditions: HEK293 cells stably transfected with human TGR5; cAMP by HTRF; 30 minutes at 37° C.; read-out: pEC50 Human TGR5 (converted)
How it was run: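 First, compounds in 3-fold serial dilution were placed in HBSS with 10 mM HEPES pH 7.4 and 0.5 mM IBMX. Next, human TGR5-expressing HEK293 cells were added and incubated 30 min at 37° C. Finally, cAMP was detected by HTRF and pEC50 derived by logistic fitting.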

SMILES | EC50 [µM]
O=C(NCCCCNS(=O)(=O)c1ccc(Cl)c(COC2(c3cnccc3-c3ccccc3OC3CC3)CC2)c1)N[C@@H](CO)[C@@H](O)[C@H](O)[C@H](O)CO (stereo in doubt) [Compound I-410, 1-{4-[4-chloro-3-({1-[4-(2-cyclopropoxyphenyl)pyridin-3-yl]cyclopropoxy}methyl)benzenesulfonamido]butyl}-3-[(2S,3R,4S,5R)-1,3,4,5,6-pentahydroxyhexan-2-yl]urea] | < 0.1
O=C([C@@H](O)[C@@H](O)[C@H](O)[C@@H](O)CO)N(CCCCSc1ccc(Cl)c(CNC2(c3cnccc3-c3ccccc3OC3CC3)CC2)c1)CCOCCO [Compound I-533, (2S,3S,4R,5S)-N-[4-({4-chloro-3-[({1-[4-(2-cyclopropoxyphenyl)pyridin-3-yl]cyclopropyl}amino)methyl]phenyl}sulfanyl)butyl]-2,3,4,5,6-pentahydroxy-N-[2-(2-hydroxyethoxy)ethyl]hexanamide] | < 0.1
CN(C[C@H](O)[C@@H](O)[C@H](O)[C@H](O)CO)C(=O)CCN(CCC(=O)N(C)C[C@H](O)[C@@H](O)[C@H](O)[C@H](O)CO)C(=O)CCCCc1cc(Cl)c(CNC2(c3cnccc3-c3ccccc3OC3CC3)CC2)cc1Cl [Compound I-171, 5-{2,5-dichloro-4-[({1-[4-(2-cyclopropoxyphenyl)pyridin-3-yl]cyclopropyl}amino)methyl]phenyl}-N,N-bis(2-{methyl[(2S,3R,4R,5R)-2,3,4,5,6-pentahydroxyhexyl]carbamoyl}ethyl) pentanamide] | 1.26 to 10
FC(F)(F)c1ccc(Cl)c(CNC2(c3cnccc3-c3ccccc3OC3CC3)CC2)c1 [Compound I-32, N-{[2-chloro-5-(trifluoromethyl)phenyl]methyl}-1-[4-(2-cyclopropoxyphenyl)pyridin-3-yl]cyclopropan-1-amine] | < 0.1
Cc1ccc(C(C)CCCC(=O)N(CCN(C)C)C[C@H](O)[C@@H](O)[C@H](O)[C@H](O)CO)cc1CNC1(c2cnccc2-c2ccccc2OC2CC2)CC1 (stereo partly drawn) [Compound I-361, 5-{3-[({1-[4-(2-cyclopropoxyphenyl)pyridin-3-yl]cyclopropyl}amino)methyl]-4-methylphenyl}-N-[2-(dimethylamino)ethyl]-N-[(2S,3R,4R,5R)-2,3,4,5,6-pentahydroxyhexyl]hexanamide] | 0.126 to 1

Results, then the compound that gave them:

EC50 [µM] | SMILES
0.126 to 1 | CNS(=O)(=O)CCN(C[C@H](O)[C@@H](O)[C@H](O)[C@H](O)CO)C(=O)CCCSc1ccc(Cl)c(COC2(c3cnccc3-c3ccccc3OC3CC3)CC2)c1 [Compound I-694, 4-{[4-chloro-3-({1-[4-(2-cyclopropoxyphenyl)pyridin-3-yl]cyclopropoxy}methyl)phenyl]sulfanyl}-N-[2-(methylsulfamoyl)ethyl]-N-[(2S,3R,4R,5R)-2,3,4,5,6-pentahydroxyhexyl]butanamide]
< 0.1 | C[C@H](CCCCNC(=O)NC[C@H](O)[C@@H](O)[C@H](O)[C@H](O)CO)c1ccc(Cl)c(COC2(c3cnccc3-c3ccccc3OC3CC3)CC2)c1 (single isomer, unassigned) [Compound I-273]
0.126 to 1 | Cc1cc(CNC2(c3cnccc3-c3ccccc3OC3CC3)CC2)c(Cl)cc1CCCCNC(=O)NC[C@H](O)[C@@H](O)[C@H](O)[C@H](O)CO (stereo in doubt) [Compound I-151, 1-(4-{5-chloro-4-[({1-[4-(2-cyclopropoxyphenyl)pyridin-3-yl]cyclopropyl}amino)methyl]-2-methylphenyl}butyl)-3-[(2S,3R,4R,5R)-2,3,4,5,6-pentahydroxyhexyl]urea]
< 0.1 | Cc1cc(COC2(c3cnccc3-c3ccccc3OC3CC3)CC2)c(C)cc1CCCCC(=O)N(C)C[C@H](O)[C@@H](O)[C@H](O)[C@H](O)CO [Compound I-230, 5-[4-({1-[4-(2-cyclopropoxyphenyl)pyridin-3-yl]cyclopropoxy}methyl)-2,5-dimethylphenyl]-N-methyl-N-[(2S,3R,4R,5R)-2,3,4,5,6-pentahydroxyhexyl]pentanamide]
